From patent publication US8258134B2, “Pyridazinone glucokinase activators” (Hoffmann-La Roche Inc., priority 2008, dated 2012)

Assays:
[1] = target: T1, Recombinant human liver GK1 (GST-GK) (Homo sapiens, UniProt P35557); experiment: Glucokinase in vitro assay (G6PDH-coupled NADH generation, OD340); format: biochemical; details: 5 mM D-glucose, 30° C., pH 7.1, 10% DMSO
T1 construct: made in house; host or cells: E. coli
T1 sequence (P35557 1-466 isoform P35557-2): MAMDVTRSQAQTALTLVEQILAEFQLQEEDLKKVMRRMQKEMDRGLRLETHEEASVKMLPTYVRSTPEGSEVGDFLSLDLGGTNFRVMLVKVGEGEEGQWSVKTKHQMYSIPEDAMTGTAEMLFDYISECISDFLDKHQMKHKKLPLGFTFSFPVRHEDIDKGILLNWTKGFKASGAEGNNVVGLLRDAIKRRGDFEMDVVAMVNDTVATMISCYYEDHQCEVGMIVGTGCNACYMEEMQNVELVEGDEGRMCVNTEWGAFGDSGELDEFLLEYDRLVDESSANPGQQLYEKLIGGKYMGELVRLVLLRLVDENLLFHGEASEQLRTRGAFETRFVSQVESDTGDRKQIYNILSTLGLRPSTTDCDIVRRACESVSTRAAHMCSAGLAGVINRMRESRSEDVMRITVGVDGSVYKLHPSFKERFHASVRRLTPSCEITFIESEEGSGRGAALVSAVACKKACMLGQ
Procedure, shortened: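 GST-tagged recombinant GK1 expressed in E. coli, run at 30° C, pH 7.1 Hepes with 5 mM D-glucose, 1 mM ATP and 1.8 mM NAD, G6PDH-coupled. Compounds were in 10% DMSO final, with a 10 min pre-incubation before enzyme addition. OD340/min rate measured; SC1.5 is the activator concentration giving a 50% increase in activity.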

Lean C57BL/6J mice = experiment: Glucokinase activator in vivo screen, blood glucose in lean mice; details: Mus musculus, vs control at 4 hours post 50 mg/kg oral dose, two hour fast, read-out: % glucose lowering @ 4 H
Procedure: Glucokinase Activator in vivo Screen Protocol in Lean and Diet Induced Obese Mice: Lean or Diet-induced Obese (DIO) C57BL/6J mice were orally dosed via gavage with Glucokinase (GK) activator following a two hour fasting period. Blood glucose determinations were made at various (e.g. 0, 1, 2, 4 and 8 hours post-oral gavage) times during the study.
C57Bl/6J mice were obtained from Jackson Laboratory (Bar Harbor, Me.) and were maintained in a light-dark cycle with lights on from 0600-1800 hr. For studies in lean mice, the mice were received at age ten weeks and given ad libitum access to control diet (LabDiet 5001 chow, PMI Nutrition, Brentwood, Mo.), and were at least age 11 weeks at the time of study. For studies in the DIO model, the mice were received at age five weeks and given ad libitum access to Bio-Serv F3282 High Fat Diet (Frenchtown, N.J.), and were at least age 16 weeks at the time of study. The experiments were conducted during the light phase of the light-dark cycle. Mice (n=6) are weighed and fasted for a two hour period prior to oral treatment. GK activators are formulated in Gelucire vehicle (Ethanol:Gelucire44/14:PEG400q.s. 4:66:30 v/w/v. For studies in lean mice, the mice were dosed orally with 5.0 μL per gram of body weight (i.e. 5 ml/kg×10.0 mg/ml formulation to equal a 50 mg/kg dose). For studies in DIO mice, the mice were dosed orally with 5.0 μL per gram of body weight (i.e. 5.0 ml/kg×5 mg/ml formulation to equal a 25 mg/kg dose). Immediately prior to dosing, a pre-dose (time zero) blood glucose reading was acquired by snipping off a small portion of the animal's tail and collecting 15 μL blood into a heparinized capillary tube for analysis. Following GK activator administration, additional blood glucose readings were taken at various time points post dose from the same tail wound. Results were interpreted by comparing the mean blood glucose values of vehicle treated mice with GK activator treated mice over the study period.
The Table below provides data for % glucose lowering of a representative number of compounds of the present invention vs control at 4 hours post 50 mg/kg dose in lean C57BL/6J mice: […]

For `CC(C)(O)Cn1ccc(NC(=O)C(CC2CCCC2)n2ncc(Oc3ccccc3C3CCCC3)cc2=O)n1` (stereo not shown) [Example 22, 3-Cyclopentyl-2-[4-(2-cyclopentyl-phenoxy)-6-oxo-6H-pyridazin-1-yl]-N-[1-(2-hydroxy-2-methyl-propyl)-1H-pyrazol-3-yl]-propionamide], the “SC1.5 average (concentration of activator that produced a 50% increase in the activity of GK)” value [1] was 0.347 µM and the change in vivo at 50 mg/kg (Lean C57BL/6J mice) was -31.6%.
In the case of `CC(C)(O)Cn1ccc(NC(=O)C(CC2CCCC2)n2ncc(Oc3ccccc3C#N)cc2=O)n1` (stereo not shown) [Example 29, 2-[4-(2-Cyano-phenoxy)-6-oxo-6H-pyridazin-1-yl]-3-cyclopentyl-N-[1-(2-hydroxy-2-methyl-propyl)-1H-pyrazol-3-yl]-propionamide], the “SC1.5 average (concentration of activator that produced a 50% increase in the activity of GK)” value [1] is reported as 0.227 µM and the change in vivo at 50 mg/kg (Lean C57BL/6J mice) is reported as -27.8%.
In the case of `CC(C)(O)Cn1ccc(NC(=O)C(CC2CCCC2)n2ncc(Oc3cc(F)ccc3F)cc2=O)n1` (stereo not shown) [Example 33, 3-Cyclopentyl-2-[4-(2,5-difluoro-phenoxy)-6-oxo-6H-pyridazin-1-yl]-N-[1-(2-hydroxy-2-methyl-propyl)-1H-pyrazol-3-yl]-propionamide], the “SC1.5 average (concentration of activator that produced a 50% increase in the activity of GK)” value [1] is reported as 0.356 µM and the change in vivo at 50 mg/kg (Lean C57BL/6J mice) is reported as -30.2%.
For `COc1ccccc1Oc1cnn(C(CC2CCCC2)C(=O)Nc2ccn(CC(C)(C)O)n2)c(=O)c1` (stereo not shown) [Example 12, 3-Cyclopentyl-N-[1-(2-hydroxy-2-methyl-propyl)-1H-pyrazol-3-yl]-2-[4-(2-methoxy-phenoxy)-6-oxo-6H-pyridazin-1-yl]-propionamide], the “SC1.5 average (concentration of activator that produced a 50% increase in the activity of GK)” value [1] was 0.117 µM and the change in vivo at 50 mg/kg (Lean C57BL/6J mice) was -49.3%.
In the case of `O=C(Nc1nccs1)C(CC1CCCC1)n1ncc(Oc2ccccc2)cc1=O` (stereo not shown) [Example 2, 3-Cyclopentyl-2-(6-oxo-4-phenoxy-6H-pyridazin-1-yl)-N-thiazol-2-yl-propionamide], the “SC1.5 average (concentration of activator that produced a 50% increase in the activity of GK)” value [1] is reported as 0.206 µM and the change in vivo at 50 mg/kg (Lean C57BL/6J mice) is reported as -41.9%.
`O=C(O)c1ccc(NC(=O)C(CC2CCCC2)n2ncc(Oc3ccccc3C3CCCC3)cc2=O)nc1` (stereo not shown) [Example 71, 6-{3-Cyclopentyl-2-[4-(2-cyclopentyl-phenoxy)-6-oxo-6H-pyridazin-1-yl]-propionylamino}-nicotinic acid] was tested, and the “SC1.5 average (concentration of activator that produced a 50% increase in the activity of GK)” value [1] was 0.312 µM and the change in vivo at 50 mg/kg (Lean C57BL/6J mice) was -61.7%.
`CC(C)(O)Cn1ccc(NC(=O)C(CC2CCCC2)n2ncc(Oc3ccccc3F)cc2=O)n1` (stereo not shown) [Example 19, 3-Cyclopentyl-2-[4-(2-fluoro-phenoxy)-6-oxo-6H-pyridazin-1-yl]-N-[1-(2-hydroxy-2-methyl-propyl)-1H-pyrazol-3-yl]-propionamide] was tested, and the “SC1.5 average (concentration of activator that produced a 50% increase in the activity of GK)” value [1] was 0.14 µM and the change in vivo at 50 mg/kg (Lean C57BL/6J mice) was -49.2%.
`Cn1nc(NC(=O)C(CC2CCCC2)n2ncc(Oc3ccccc3C(F)(F)F)cc2=O)cc1Cl` (stereo not shown) [Example 13, N-(5-Chloro-1-methyl-1H-pyrazol-3-yl)-3-cyclopentyl-2-[6-oxo-4-(2-trifluoromethyl-phenoxy)-6H-pyridazin-1-yl]-propionamide] was tested, and the “SC1.5 average (concentration of activator that produced a 50% increase in the activity of GK)” value [1] was 0.179 µM and the change in vivo at 50 mg/kg (Lean C57BL/6J mice) was -45.8%.
